Laboratory results reported in ChEMBL document CHEMBL1221239, “Triaryl (Z)-olefins suitable for radiolabeling with carbon-11 or fluorine-18 radionuclides for positron emission tomography imaging of cyclooxygenase-2 expression in pathological disease” (Bioorg Med Chem Lett, 2010).

How the values were obtained:
[1] = target: T1, Prostaglandin G/H synthase 2 (Homo sapiens, UniProt P35354); experiment: Inhibition of human recombinant COX2 by EIA
T1 sequence (P35354 whole entry): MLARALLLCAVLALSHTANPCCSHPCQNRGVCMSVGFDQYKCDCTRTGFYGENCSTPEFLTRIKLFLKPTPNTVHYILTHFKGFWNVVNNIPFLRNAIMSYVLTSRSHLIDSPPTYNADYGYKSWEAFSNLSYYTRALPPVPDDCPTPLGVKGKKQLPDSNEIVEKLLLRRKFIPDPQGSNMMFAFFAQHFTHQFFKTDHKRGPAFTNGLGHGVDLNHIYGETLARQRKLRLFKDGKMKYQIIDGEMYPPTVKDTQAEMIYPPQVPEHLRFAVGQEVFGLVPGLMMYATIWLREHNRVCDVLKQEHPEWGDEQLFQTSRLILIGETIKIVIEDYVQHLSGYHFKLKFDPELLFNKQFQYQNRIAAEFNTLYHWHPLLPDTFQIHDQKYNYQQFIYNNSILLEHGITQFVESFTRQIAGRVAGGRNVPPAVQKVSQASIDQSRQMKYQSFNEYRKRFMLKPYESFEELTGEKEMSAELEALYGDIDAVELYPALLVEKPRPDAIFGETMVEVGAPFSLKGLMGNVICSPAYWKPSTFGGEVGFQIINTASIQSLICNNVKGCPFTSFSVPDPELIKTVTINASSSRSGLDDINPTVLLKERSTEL

[2] = Selectivity index, ratio of IC50 for ovine COX1 to IC50 for human recombinant COX2
[3] = target: T2, Prostaglandin G/H synthase 1 (Ovis aries, UniProt P05979)
T2 sequence (P05979 whole entry): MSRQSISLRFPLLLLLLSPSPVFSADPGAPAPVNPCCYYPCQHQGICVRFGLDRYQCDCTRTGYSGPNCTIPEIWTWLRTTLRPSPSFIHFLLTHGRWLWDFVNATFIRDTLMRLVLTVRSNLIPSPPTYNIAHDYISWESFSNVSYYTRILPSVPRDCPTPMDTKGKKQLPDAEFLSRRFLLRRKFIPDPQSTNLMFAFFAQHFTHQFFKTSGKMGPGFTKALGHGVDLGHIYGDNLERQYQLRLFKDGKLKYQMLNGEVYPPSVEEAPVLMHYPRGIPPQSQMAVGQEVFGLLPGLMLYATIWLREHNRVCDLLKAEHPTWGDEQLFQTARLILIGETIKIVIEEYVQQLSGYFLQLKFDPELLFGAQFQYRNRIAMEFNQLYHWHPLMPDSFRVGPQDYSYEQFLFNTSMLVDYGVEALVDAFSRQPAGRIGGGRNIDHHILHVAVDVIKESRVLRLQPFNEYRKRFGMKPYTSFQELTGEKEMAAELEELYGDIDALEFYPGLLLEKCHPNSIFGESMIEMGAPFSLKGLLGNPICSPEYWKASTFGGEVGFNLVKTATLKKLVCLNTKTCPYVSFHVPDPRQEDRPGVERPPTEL
Description: Inhibition of ovine COX1 by EIA

Row | SMILES | IC50 [1] [µM] | Ratio IC50 [2] | IC50 [3] [µM]
1 | CCCCC(=C(c1ccccc1)c1ccccc1)c1ccc(S(C)(=O)=O)cc1 | 2.7 | 3.4 | 9.1
2 | CCCC/C(=C(\c1ccccc1)c1ccc(O)cc1)c1ccc(S(C)(=O)=O)cc1 | 11.8 | > 8.5 | > 100
3 | CCCC/C(=C(\c1ccccc1)c1ccc(OCCF)cc1)c1ccc(S(C)(=O)=O)cc1 | 22.3 | > 4.5 | > 100
4 | CS(=O)(=O)c1ccc(C(CCF)=C(c2ccccc2)c2ccccc2)cc1 | > 100 | – | > 100

Further compounds by falling IC50 [1], results first:

Row | IC50 [1] [µM] | Ratio IC50 [2] | IC50 [3] [µM] | SMILES
5 | 10.7 | > 9.3 | > 100 | CC/C(=C(\c1ccccc1)c1ccc(OC)cc1)c1ccc(S(C)(=O)=O)cc1
6 | 7.7 | > 13 | > 100 | CCCC/C(=C(\c1ccccc1)c1ccc(OC)cc1)c1ccc(S(C)(=O)=O)cc1
7 | 1.2 | 26.3 | 31.6 | CCC(=C(c1ccccc1)c1ccccc1)c1ccc(S(C)(=O)=O)cc1
